Like-named read-outs stand apart in the source and are kept apart here.

Assay [1] is described as follows: DPPH free radical scavenging capacity. Here is the method: The stable free radical was used to determine the free radical-scavenging activity of the extracts. Briefly, a 0.32 mM solution of DPPH in MeOH was prepared, and 180 µL of this solution was mixed with 30 µL of each sample at concentrations of 0.05–1.0 mg/mL in DMSO. After 20 min of incubation in the darkroom, the decrease in the absorbance of the solution was measured at 570 nm on a microplate reader (EL800 Universal Microplate reader, Bio-Tek instruments, Winooski, VT, USA). DPPH inhibitory activity was expressed as the percentage inhibition (%) of DPPH in the aforementioned assay system, and was calculated as [1 − (Asample − Ablank/Acontrol − Ablank)] × 100%, where Acontrol is the absorbance of DPPH solution (180 µL) with methanol (30 µL); Ablank is the absorbance of distilled water (180 µL) with methanol (30 µL); Asample is the absorbance of DPPH solution (180 µL) with sample solution (30 µL).
On the technique in general: The DPPH test is a chemical assay of radical scavenging.

Assay [2] has as its target T1, recombinant human aldose reductase (RHAR) (Homo sapiens, UniProt P15121).
T1 construct: purchased Wako Pure Chemical Industries (Osaka, Japan)
The assay is described as follows: Determination of inhibition type of RHAR (Lineweaver-Burk plots). The following applies: DL-glyceraldehyde 1.0 to 25.0 mM. The class given is biochemical.
Protocol: Reaction mixtures consisted of 0.1 M potassium phosphate, 1.6 mM NADPH, and 2 mM of RHAR with varied concentrations of substrate DL-glyceraldehyde and AR inhibitor in a total volume of 600 μL. […] RHAR activity was assayed by measuring the decrease in absorption of NADPH after substrate addition at 340 nm using a Bio Tek Power Wave XS spectrophotometer (Bio Tek Instruments, Winooski, VT, USA) [41].

The target of assay [3] is T2, rat lens aldose reductase (RLAR) (Rattus norvegicus, UniProt P07943).
T2 construct: The supernatant was collected and used as the RLAR; from tissue; host or cells: Sprague–Dawley rat lens homogenate, 10,000 x g supernatant
The assay is described as follows: Determination of RLAR inhibition in vitro (NADPH decrease at 340 nm, DL-glyceraldehyde substrate).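 For all read-outs here: crude enzyme from Sprague–Dawley rat lens homogenate supernatant, absorbance read over 3 min in pH 6.2 potassium phosphate buffer with 1.6 mM NADPH and 25 mM substrate.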 Type of assay: biochemical. Also on record: inhibition: dose or concentration left out as unconfirmed. The following applies: for IC50: Experiments.
Protocol: Crude RLAR was prepared as follows: lenses weighing 250–280 g were removed from Sprague–Dawley rats and frozen at −70 °C until use. […] Non-cataractous transparent lenses were pooled and a homogenate was prepared in 0.1 M phosphate-buffered saline (pH 6.2). RLAR homogenate was then centrifuged at 10,000× g for 20 min at 4 °C in a refrigerated centrifuge. The supernatant was collected and used as the RLAR. All procedures were carried out at 4 °C [37].
RLAR activity was assayed spectrophotometrically by measuring the decrease in the absorption of NADPH at 340 nm over a 3-min period using DL-glyceraldehyde as the substrate. Each 1.0 mL cuvette contained equal units of the enzyme, 0.10 M potassium phosphate buffer (pH 6.2), 1.6 mM NADPH, 25 mM DL-glyceraldehyde (the substrate), and an inhibitor or dimethyl sulfoxide (DMSO).

Assay [4] relates to sorbitol accumulation in rat lenses. Put plainly: Lens culture and intracellular sorbitol measurement (ex vivo). The following applies: compound 5.0 μg/mL; for Inhibition (%) of sorbitol accumulation in rat lens: isolated rat lens ex vivo; for Sorbitol Content (mg)/Lens Wet Weight (g): isolated rat lens, 30 mM glucose medium, 6 d. Here is the method: Lenses isolated from 10-week-old Sprague–Dawley rats using the registration number mentioned in the section of 4.5 were cultured for 6 d in TC-199 medium that contained 15% fetal bovine serum, 100 units/mL penicillin, and 0.1 mg/mL streptomycin, under sterile conditions and an atmosphere of 5% CO2 and 95% air at 37 °C. Samples were dissolved in DMSO. The lenses were divided into three groups and cultured in medium containing 30 mM glucose and RLAR-active compounds. Each lens was placed in a well containing 2.0 mL of medium. Sorbitol was determined by HPLC using the methods mentioned in the section of 4.7 after its derivatization by reaction with benzoic acid to a fluorescent compound [42].

For assay [5], the target named is T2, rat lens aldose reductase (RLAR). The settings on record: literature value; read-out: RLAR IC50 (References); cited from earlier work.
Assay [6] can be described thus: Offline DPPH HPLC assay of the n-BuOH fraction (peak area reduction). The following applies: n-BuOH fraction 20 mg/mL mixed with […] DPPH, 20 min, HPLC 254 nm. Here is the method: The sample was analyzed using an Agilent Technologies modular model 1200 system with a vacuum degasser (G1322A), a quaternary pump (G1311A), an auto-sampler (G1329A), a thermo-statted column compartment (G1316A), and a variable wavelength detector (VWD, G1314D) system. The separation was achieved on an Eclipse XDB-phenyl column (150 mm × 4.6 mm, 3.5 μm) maintained at 30 °C. The elution solvents were 0.1% trifluoroacetic acid (A) and MeOH (B) with the following gradient: 20%–30% B (0–3 min), 30%–40% B (3–10 min), 40%–50% B (10–20 min), 50%–60% B […], 60%–100% B (25–35 min), 100%–100% B (35–38 min), 100%–20% B (38–40 min), and 20%–20% B (40–45 min). Injection volume was 10 µL (sample concentration: 1 mg/mL) and UV wavelength was 254 nm.
The offline DPPH HPLC assay was performed by modifying a previously-described protocol. Thirty microliters (20 mg/mL in MeOH) of the n-BuOH fraction from APE were mixed with 180 μL prepared DPPH solution (0.32 mM). The mixture was incubated in the dark for 20 min, then filtered through a 0.45-μm filter for HPLC analysis. The n-BuOH (20 mg/mL in MeOH) was used as a control. The extent of peak decrease is expressed as a quantitative reduction.

In assay [1], `O=C(OC1OC2COC(=O)c3cc(O)c(O)c(O)c3-c3c(cc(O)c(O)c3O)C(=O)OC2C2OC(=O)c3cc(O)c(O)c(O)c3-c3c(cc(O)c(O)c3O)C(=O)OC12)c1cc(O)c(O)c(Oc2c(C(=O)OC3OC4COC(=O)c5cc(O)c(O)c(O)c5-c5c(cc(O)c(O)c5O)C(=O)OC4C4OC(=O)c5cc(O)c(O)c(O)c5-c5c(cc(O)c(O)c5O)C(=O)OC34)cc(O)c(O)c2O)c1` (stereo not shown) [Agrimoniin (AM), agrimoniin] returned an IC50 of 13 ± 0.06 µM. Also, in assay [2], the Inhibition type entry is “Noncompetitive”. The same compound came in with an IC50 in assay [3] of 1.6 ± 0.12 µM. In assay [4], the “Inhibition (%) of sorbitol accumulation in rat lens” value is 47.6 ± 1.34% and the “Sorbitol Content (mg)/Lens Wet Weight (g)” value amounted to 0.77 ± 0.02 mg/g.
`O=C(O)[C@H]1O[C@@H](Oc2cc(O)c3c(=O)cc(-c4ccc(O)c(O)c4)oc3c2)[C@H](O)[C@@H](O)[C@@H]1O` [Luteolin-7-O-glucuronide (LGN), luteolin-7-O-glucuronide]: the IC50 was 80.6 ± 0.38 µM in assay [1], 3.1 µM in assay [5] and 0.7 ± 0.54 µM in assay [3]. Besides, the “peak area reduction (PAR)” value in assay [6] is on record as “lower than 20.0%”. The Inhibition type entry in assay [2] is “Noncompetitive”. In assay [3] (Table 2, printed under head DPPH/Experiments), the inhibition amounted to 83.3 ± 0.88%. In addition, in assay [4], the “Inhibition (%) of sorbitol accumulation in rat lens” value worked out at 91.8 ± 9.01%. The “Sorbitol Content (mg)/Lens Wet Weight (g)” value in assay [4] came to 0.12 ± 0.01 mg/g.

The IC50 is the point on the concentration scale where inhibition reaches its midpoint. As a reminder, the inhibition is how much of the control response was suppressed.

(Values after article PMC5343914, “Phytochemical Analysis of Agrimonia pilosa Ledeb, Its Antioxidant Activity and Aldose Reductase Inhibitory Potential” (International Journal of Molecular Sciences, 2017).)
